Results published in ChEMBL document CHEMBL1147418, “Rational design and synthesis of selective BACE-1 inhibitors” (Bioorg Med Chem Lett, 2004).

Legend:
Beta-secretase 1 [1] = biological target: T1, Beta-secretase 1 (Homo sapiens, UniProt P56817); assay: Tested for inhibition of Beta-secretase 1 (BACE 1) expressed in insect cell using baculovirus
Cathepsin D = Cathepsin D (Homo sapiens, UniProt P07339); assay: Compound was tested for inhibition of cathepsin D
Renin = biological target: T2, Renin (Homo sapiens, UniProt P00797); assay: Compound was tested for inhibition of human renin
T2 sequence (P00797 whole entry): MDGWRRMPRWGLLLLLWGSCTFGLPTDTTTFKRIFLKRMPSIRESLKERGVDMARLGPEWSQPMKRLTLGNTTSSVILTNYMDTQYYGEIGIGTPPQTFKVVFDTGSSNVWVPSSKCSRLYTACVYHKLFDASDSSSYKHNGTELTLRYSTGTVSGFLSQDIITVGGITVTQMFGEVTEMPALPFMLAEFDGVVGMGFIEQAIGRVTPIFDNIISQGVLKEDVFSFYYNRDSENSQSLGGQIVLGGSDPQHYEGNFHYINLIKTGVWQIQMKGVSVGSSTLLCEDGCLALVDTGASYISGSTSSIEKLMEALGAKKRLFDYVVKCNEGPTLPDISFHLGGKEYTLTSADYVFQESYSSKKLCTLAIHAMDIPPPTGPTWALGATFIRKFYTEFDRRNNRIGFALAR

Beta-secretase 1 [2] = biological target: T1, Beta-secretase 1; assay: Compound (>1 mM ) was tested for inhibition of Beta-secretase 1 (BACE 1) expressed in insect cell using baculovirus; Not inhibited

Sequence of Cathepsin D (P07339 65-162 limits assumed): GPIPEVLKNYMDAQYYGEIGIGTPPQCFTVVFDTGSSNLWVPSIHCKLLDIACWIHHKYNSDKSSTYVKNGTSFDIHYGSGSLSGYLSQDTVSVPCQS
Sequence of Cathepsin D (P07339 169-412 limits assumed): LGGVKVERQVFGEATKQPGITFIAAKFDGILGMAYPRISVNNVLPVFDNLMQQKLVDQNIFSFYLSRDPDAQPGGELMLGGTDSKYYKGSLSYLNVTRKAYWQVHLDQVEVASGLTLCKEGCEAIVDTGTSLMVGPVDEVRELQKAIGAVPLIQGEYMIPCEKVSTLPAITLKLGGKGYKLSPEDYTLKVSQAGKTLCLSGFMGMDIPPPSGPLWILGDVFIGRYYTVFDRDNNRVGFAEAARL
T1 sequence (P56817 whole entry): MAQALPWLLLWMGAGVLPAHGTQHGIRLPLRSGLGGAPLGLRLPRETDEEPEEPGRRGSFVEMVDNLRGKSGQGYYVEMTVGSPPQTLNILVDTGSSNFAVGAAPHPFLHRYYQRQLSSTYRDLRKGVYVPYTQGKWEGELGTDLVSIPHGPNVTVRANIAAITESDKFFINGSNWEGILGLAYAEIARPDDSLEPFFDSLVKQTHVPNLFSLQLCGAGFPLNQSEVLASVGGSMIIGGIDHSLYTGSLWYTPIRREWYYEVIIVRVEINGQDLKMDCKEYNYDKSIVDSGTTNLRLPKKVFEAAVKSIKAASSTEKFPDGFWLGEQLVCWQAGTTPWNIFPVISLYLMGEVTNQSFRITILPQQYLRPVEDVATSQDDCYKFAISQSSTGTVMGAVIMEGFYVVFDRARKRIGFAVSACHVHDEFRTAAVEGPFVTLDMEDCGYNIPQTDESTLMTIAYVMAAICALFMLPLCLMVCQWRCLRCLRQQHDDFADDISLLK

SMILES	Ki (Beta-secretase 1 [1]) [µM]	Ki (Cathepsin D) [µM]	Ki (Renin) [µM]	Activity (Beta-secretase 1 [2])
CCC[C@H](C[C@H](O)[C@H](Cc1ccccc1)NC(=O)C[C@H](NC(=O)CC(C)C)C(=O)O)C(=O)NCC(C)C	69.5	28	24.4	
CC(C)CNC(=O)[C@H](CCO)C[C@H](O)[C@H](Cc1ccccc1)NC(=O)C[C@H](NC(=O)CC(C)C)C(=O)O	1.9	12.5	10.9	
CC(C)CC(=O)N[C@H](C(=O)N[C@H](C(=O)N[C@@H](CC(C)C)[C@@H](O)CC(=O)N[C@@H](C)C(=O)N[C@@H](CC(C)C)[C@@H](O)CC(=O)O)C(C)C)C(C)C				No inhibition
CC(=O)OCC[C@H](C[C@H](O)[C@H](Cc1ccccc1)NC(=O)C[C@H](NC(=O)CC(C)C)C(=O)O)C(=O)NCC(C)C	2.7	2.2	1.9	
CC(C)CNC(=O)[C@H](CCC(=O)O)C[C@H](O)[C@H](Cc1ccccc1)NC(=O)C[C@H](NC(=O)CC(C)C)C(=O)O	1.7	79.7	73.6	
